This note sets out measurements from patent US20230303540A1 (Merck Sharp & Dohme LLC, priority 2020, published 2023).

Each structure is given as a SMILES string.

This test concerns the target GST-tagged truncated human mutant G2019S LRRK2 (Homo sapiens, UniProt Q5S007, G2019S). Briefly: LRRK2 G2019S Km ATP LanthaScreen assay. The class given is biochemical. As to conditions: 134 μM ATP (Km ATP), LRRKtide substrate, mean IC50 values; read-out: LRRK2 pIC50 (converted). The procedure:
Unless otherwise noted, all reactions are magnetically stirred. Unless otherwise noted, when diethyl ether is used in the experiments described below, it is Fisher ACS certified material and is stabilized with BHT. Unless otherwise noted, “concentrated” and/or “solvent removed under reduced pressure” means evaporating the solvent from a solution or mixture using a rotary evaporator or vacuum pump. Unless otherwise noted, flash chromatography is carried out on a Teledyne Isco (Lincoln, NE), Analogix (Burlington, WI), or Biotage (Stockholm, SWE) automated chromatography system using a commercially available cartridge as the column. Columns may be purchased from Teledyne Isco, Analogix, Biotage, Varian (Palo Alto, CA), or Supelco (Bellefonte, PA) and are usually filled with silica gel as the stationary phase. Reverse phase prep-HPLC conditions, where used, can be found at the end of each experimental section. Aqueous solutions were concentrated on a Genevac (Ipswich, ENG) or by freeze-drying/lyophilization. Unless otherwise noted, all LRRK2 pIC50 data presented in tables refers to the LRRK2 G2019S Km ATP LanthaScreen™ assay (Life Technologies Corp., Carlsbad, CA) that is described in the Biological Assay section.
The IC50 values reported herein were measured as follows.
Biological Assay: LRRK2 Km ATP LanthaScreen™ Assay
The LRRK2 kinase activity reported herein as IC50 values was determined with LanthaScreen™ technology from Life Technologies Corporation (Carlsbad, CA) using GST-tagged truncated human mutant G2019S LRRK2 in the presence of the fluorescein-labeled peptide substrate LRRKtide, also from Life Technologies. The data presented for the Km ATP LanthaScreen™ Assay represents mean IC50 values based on several test results and may have reasonable deviations depending on the specific conditions and reagents used. Assays were performed in the presence of 134 μM ATP (Km ATP). Upon completion, the assay was stopped and phosphorylated substrate detected with a terbium (Tb)-labeled anti-pERM antibody (cat. no. PV4898). The compound dose response was prepared by diluting a 10 mM stock of compound to a maximum concentration of 9.99 μM in 100% dimethylsulfoxide followed by custom fold serial dilution in dimethylsulfoxide nine times. Twenty nanoliters of each dilution was spotted via a Labcyte Echo onto a 384-well black-sided plate (Corning 3575) followed by 15 μl of a 1.25 nM enzyme solution in 1× assay buffer (50 mM Tris pH 8.5, 10 mM MgCl2, 0.01% Brij-35, 1 mM EGTA, 2 mM dithiothreitol, 0.05 mM sodium orthovanadate). Following a 15-minute incubation at room temperature, the kinase reaction was started with the addition of 5 μl of 400 nM fluorescein-labeled LRRKtide peptide substrate and 134 μM ATP solution in 1× assay buffer. The reaction was allowed to progress at ambient temperature for 90 minutes. The reaction was then stopped by the addition of 20 μl of TR-FRET Dilution Buffer (Life Technologies, Carlsbad, CA) containing 2 nM Tb-labeled anti-phospho LRRKtide antibody and 10 mM EDTA (Life Technologies, Carlsbad, CA). After an incubation of 1 hour at room temperature, the plate was read on an EnVision multimode plate reader (Perkin Elmer, Waltham, MA) with an excitation wavelength of 337 nm (Laser) and a reading emission at both 520 and 495 nm. Compound IC50s were interpolated from nonlinear regression best fits of the log of the final compound concentration, plotted as a function of the 520/495-nm emission ratio using Activity base. Abase uses a 4 parameter (4P) logistic fit based on the Levenberg-Marquardt algorithm.
Regarding `Cn1ncc(Nc2ncc3ccc(N4C(=O)C5CCC4C5)cc3n2)c1C(F)(F)F` (single isomer, unassigned) [Ex-4.4, 2-(2-{[1-methyl-5-(trifluoromethyl)-1H-pyrazol-4-yl]amino}quinazolin-7-yl)-2-azabicyclo[2.2.1]heptan-3-one], the IC50 is 24.6 nM. For `Cn1ncc(Nc2ncc3ccc(N4C(=O)C5CCC4C5)cc3n2)c1C(F)(F)F` (single isomer, unassigned) [Ex-4.5, 2-(2-{[1-methyl-5-(trifluoromethyl)-1H-pyrazol-4-yl]amino}quinazolin-7-yl)-2-azabicyclo[2.2.1]heptan-3-one] the value was 7.26 nM; for `Cn1ncc(Nc2ncc3ccc(N4C(=O)C5CCC4C5)cc3n2)c1C(F)F` (single isomer, unassigned) [Ex-4.6, 2-(2-{[5-(difluoromethyl)-1-methyl-1H-pyrazol-4-yl]amino}quinazolin-7-yl)-2-azabicyclo[2.2.1]heptan-3-one], 34.9 nM; for `Cn1ncc(Nc2ncc3ccc(N4C(=O)C5CCC4C5)cc3n2)c1C(F)F` (single isomer, unassigned) [Ex-4.7, 2-(2-{[5-(difluoromethyl)-1-methyl-1H-pyrazol-4-yl]amino}quinazolin-7-yl)-2-azabicyclo[2.2.1]heptan-3-one], 3.19 nM. `CC1CCC12CN(c1cc3nc(Nc4cnn(C5(C)CC5)c4Cl)ncc3cc1Cl)C2` (single isomer, unassigned) [Ex-4.25, (R) or (S) 6-chloro-N-[5-chloro-1-(1-methylcyclopropyl)-1H-pyrazol-4-yl]-7-(5-methyl-2-azaspiro[3.3]heptan-2-yl)quinazolin-2-amine]: the IC50 was 570 nM. `CC1CCC12CN(c1cc3nc(Nc4cnn(C5(C)CC5)c4Cl)ncc3cc1Cl)C2` (single isomer, unassigned) [Ex-4.26, (R) or (S) 6-chloro-N-[5-chloro-1-(1-methylcyclopropyl)-1H-pyrazol-4-yl]-7-(5-methyl-2-azaspiro[3.3]heptan-2-yl)quinazolin-2-amine]: the IC50 was 9.09 nM. Next, `CC1(N2CCN(c3cc4nc(Nc5cnn(C6CC6(F)F)c5Cl)ncc4cc3Cl)CC2)COC1` (single isomer, unassigned) [Ex-4.60, 6-chloro-N-[5-chloro-1-(2,2-(R) or (S)difluorocyclopropyl)-1H-pyrazol-4-yl]-7-[4-(3-methyloxetan-3-yl)piperazin-1-yl]quinazolin-2-amine]: 3.24 nM; `CC1(N2CCN(c3cc4nc(Nc5cnn(C6CC6(F)F)c5Cl)ncc4cc3Cl)CC2)COC1` (single isomer, unassigned) [Ex-4.61, 6-chloro-N-[5-chloro-1-(2,2-(R) or (S)difluorocyclopropyl)-1H-pyrazol-4-yl]-7-[4-(3-methyloxetan-3-yl)piperazin-1-yl]quinazolin-2-amine]: 7.3 nM; `Cc1cc2cnc(Nc3cnn(C4CC4(F)F)c3Cl)nc2cc1N1CCN([C@H]2COC[C@H]2O)CC1` (single isomer, unassigned) [Ex-5.1, (3S, 4S) or (3R, 4R) 4-(4-(2-((5-Chloro-1-(2,2-(R) or (S)difluorocyclopropyl)-1H-pyrazol-4-yl)amino)-6-methylquinazolin-7-yl)piperazin-1-yl)tetrahydrofuran-3-ol]: 0.105 nM. For `Cc1cc2cnc(Nc3cnn(C4CC4(F)F)c3C)nc2cc1N1CCN(C2COCC2O)CC1` (single isomer, unassigned) [Ex-5.2, (3S,4S) or (3R,4R) 4-(4-(2-((1-(2,2-(R) or (S)difluorocyclopropyl)-5-methyl-1H-pyrazol-4-yl)amino)-6-methylquinazolin-7-yl)piperazin-1-yl)tetrahydrofuran-3-ol] the value was 0.45 nM; for `Cc1cc2cnc(Nc3cnn(C4CC4(F)F)c3C)nc2cc1N1CCN(C2(C)COCC2O)CC1` (single isomer, unassigned) [Ex-5.3, (3S,4S) or (3R,4R) 4-(4-(2-((1-(2,2-(R) or (S)difluorocyclopropyl)-5-methyl-1H-pyrazol-4-yl)amino)-6-methylquinazolin-7-yl)piperazin-1-yl)-4-methyltetrahydrofuran-3-ol], 0.31 nM; for `Cc1cc2cnc(Nc3cnn(C4CC4)c3C)nc2cc1N1CCN(C2(C)COCC2O)CC1` (single isomer, unassigned) [Ex-5.4, (3S,4S) or (3R,4R) 4-(4-(2-((1-cyclopropyl-5-methyl-1H-pyrazol-4-yl)amino)-6-methylquinazolin-7-yl)piperazin-1-yl)-4-methyltetrahydrofuran-3-ol], 0.18 nM.

Regarding `Cc1cc2cnc(Nc3cnn(C4CC4(F)F)c3Cl)nc2cc1N1CCN(C2(C)COCC2O)CC1` (single isomer, unassigned) [Ex-5.5, (3S,4S) or (3R,4R) 4-(4-(2-((5-chloro-1-(2,2-(R) or (S)difluorocyclopropyl)-1H-pyrazol-4-yl)amino)-6-methylquinazolin-7-yl)piperazin-1-yl)-4-methyltetrahydrofuran-3-ol], the IC50 was 0.42 nM.

For `Cc1cc2cnc(Nc3cnn(C4CC4)c3Cl)nc2cc1N1CCN(C2(C)COCC2O)CC1` (single isomer, unassigned) [Ex-5.6, (3S,4S) or (3R,4R) 4-(4-(2-((5-chloro-1-cyclopropyl-1H-pyrazol-4-yl)amino)-6-methylquinazolin-7-yl)piperazin-1-yl)-4-methyltetrahydrofuran-3-ol], the IC50 was 0.403 nM. As for `Cc1cc2cnc(Nc3cnn(C4CC4)c3C)nc2cc1N1CCN(C2COCC2O)CC1` (single isomer, unassigned) [Ex-5.7, (3S,4S) or (3R,4R) 4-(4-{2-[(1-cyclopropyl-5-methyl-1H-pyrazol-4-yl)amino]-6-methylquinazolin-7-yl}piperazin-1-yl)oxolan-3-ol], the IC50 is 0.197 nM. For `Cc1cc2cnc(Nc3cnn(C4CC4)c3Cl)nc2cc1N1CCN(C2COCC2O)CC1` (single isomer, unassigned) [Ex-5.8, (3S,4S) or (3R,4R) 4-(4-{2-[(5-chloro-1-cyclopropyl-1H-pyrazol-4-yl)amino]-6-methylquinazolin-7-yl}piperazin-1-yl)oxolan-3-ol], the IC50 was 0.17 nM. For `Cc1cc2cnc(Nc3cnn(C45CC(C4)C5)c3Cl)nc2cc1N1CCN(C2COCC2O)CC1` (single isomer, unassigned) [Ex-5.12, (3S,4S) or (3R,4R) 4-(4-(2-((1-(bicyclo[1.1.1]pentan-1-yl)-5-chloro-1H-pyrazol-4-yl)amino)-6-methylquinazolin-7-yl)piperazin-1-yl)tetrahydrofuran-3-ol] the value was 5.17 nM; for `Cc1cc2cnc(Nc3cnn(C45CC(C4)C5)c3Cl)nc2cc1N1CCN(C2COCC2O)CC1` (single isomer, unassigned) [Ex-5.13, (3S,4S) or (3R,4R) 4-(4-(2-((1-(bicyclo[1.1.1]pentan-1-yl)-5-chloro-1H-pyrazol-4-yl)amino)-6-methylquinazolin-7-yl)piperazin-1-yl)tetrahydrofuran-3-ol], 1.05 nM; for `Cc1cc2cnc(Nc3cnn(C45CC(C4)C5)c3Cl)nc2cc1N1CC2(C1)CN(C1COCC1O)C2` (single isomer, unassigned) [Ex-5.16, (3R,4R) or (3S,4S) 4-(6-(2-((1-(bicyclo[1.1.1]pentan-1-yl)-5-chloro-1H-pyrazol-4-yl)amino)-6-methylquinazolin-7-yl)-2,6-diazaspiro[3.3]heptan-2-yl)tetrahydrofuran-3-ol], 20.9 nM. Consider `CC1(N2CCN(c3cc4nc(Nc5cnn(C6CC6(F)F)c5Cl)ncc4cc3Cl)CC2)COCC1O` (single isomer, unassigned) [Ex-6.2, (3S,4S) or (3R,4R) 4-(4-(6-chloro-2-((5-chloro-1-(2,2-(R) or (S)difluorocyclopropyl)-1H-pyrazol-4-yl)amino)quinazolin-7-yl)piperazin-1-yl)-4-methyltetrahydrofuran-3-ol], for which the IC50 is 0.08 nM.
